Experimental data published in patent US10750743B2, “Pyridazinone herbicides” (E.I. DU PONT DE NEMOURS AND COMPANY, priority 2015, dated 2020).

Columns and labels:
Format in all cases: in vivo
[1] = tested on: sedge, umbrella (small-flower umbrella sedge, Cyperus difformis); test: Test B flooded paddy test, visual rating; conditions: Flood, 250 g ai/ha, applied to paddy water, rated after 13 to 15 d
Summary of the method: (§1)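 Plants at the 2-leaf stage were flooded to 3 cm above soil, and test compounds were applied directly into the paddy water, which was held at that depth throughout. After 13 to 15 d in a greenhouse, injury was rated visually against untreated controls on a 0–100 scale (0 no effect, 100 complete control).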

[2] = tested on: ducksalad (Heteranthera limosa); test: Test B flooded paddy test, visual rating; conditions: Flood, 250 g ai/ha, applied to paddy water, rated after 13 to 15 d
Summary of the method: as §1

rice (Oryza sativa) = test: Test B flooded paddy test, visual rating; conditions: Flood, 250 g ai/ha, applied to paddy water, rated after 13 to 15 d
Summary of the method: as §1

[3] = tested on: barnyardgrass (Echinochloa crus-galli); test: Test B flooded paddy test, visual rating; conditions: Flood, 250 g ai/ha, applied to paddy water, rated after 13 to 15 d
Summary of the method: as §1

[4] = tested on: pigweed (Amaranthus retroflexus); test: Test A postemergence application, visual injury rating; conditions: for Plant response rating (0 to 100 scale), Pigweed: 31 g ai/ha, 0 is no effect, 100 is complete control; for Pigweed plant response rating: 125 g ai/ha, 0 to 100 scale, 0 no effect, 100 complete control
Summary of the method: (§2)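 Seeds sown in a loam soil–sand blend received a directed preemergence soil spray of test chemical in a non-phytotoxic solvent mixture with surfactant. Postemergence plants were sprayed at 2 to 10 cm, one- to two-leaf stage. After approximately 10 d in greenhouse, injury was visually rated 0 (no effect) to 100 (complete control) against untreated controls.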

[5] = tested on: wheat (Triticum aestivum); test: as above; conditions: for Plant response rating (0 to 100 scale), Wheat: 31 g ai/ha, 0 is no effect, 100 is complete control; for Wheat plant response rating: 125 g ai/ha, 0 to 100 scale, 0 no effect, 100 complete control
Summary of the method: as §2

corn (Zea mays) = test: as above; conditions: for Plant response rating (0 to 100 scale), Corn: 31 g ai/ha, 0 is no effect, 100 is complete control; for Corn plant response rating: 125 g ai/ha, 0 to 100 scale, 0 no effect, 100 complete control
Summary of the method: as §2

[6] = tested on: ryegrass, It. (Italian ryegrass, Lolium multiflorum); test: as above; conditions: for Plant response rating (0 to 100 scale), Ryegrass, It.: 31 g ai/ha, 0 is no effect, 100 is complete control; for Ryegrass, It. plant response rating: 125 g ai/ha, 0 to 100 scale, 0 no effect, 100 complete control
Summary of the method: as §2

[7] = tested on: galium (catchweed bedstraw, Galium aparine); test: as above; conditions: for Plant response rating (0 to 100 scale), Galium: 31 g ai/ha, 0 is no effect, 100 is complete control; for Galium plant response rating: 125 g ai/ha, 0 to 100 scale, 0 no effect, 100 complete control
Summary of the method: as §2

kochia (Kochia scoparia) [8] = test: as above; conditions: for Plant response rating (0 to 100 scale), Kochia: 31 g ai/ha, 0 is no effect, 100 is complete control; for Kochia plant response rating: 125 g ai/ha, 0 to 100 scale, 0 no effect, 100 complete control
Summary of the method: as §2

[9] = tested on: barnyardgrass (Echinochloa crus-galli); test: as above; conditions: 0 to 100 scale, 0 no effect, 100 complete control
Summary of the method: as §2

[10] = tested on: ragweed (common ragweed, Ambrosia elatior); test: as above; conditions: for Plant response rating (0 to 100 scale), Ragweed: 31 g ai/ha, 0 is no effect, 100 is complete control; for Ragweed plant response rating: 125 g ai/ha, 0 to 100 scale, 0 no effect, 100 complete control
Summary of the method: as §2

Foxtail, Green [11] = test: as above; conditions: for Plant response rating (0 to 100 scale), Foxtail, Green: 31 g ai/ha, 0 is no effect, 100 is complete control; for Foxtail, Green plant response rating: 125 g ai/ha, 0 to 100 scale, 0 no effect, 100 complete control
Summary of the method: as §2

[12] = tested on: blackgrass (Alopecurus myosuroides); test: as above; conditions: 0 to 100 scale, 0 no effect, 100 complete control
Summary of the method: as §2

[13] = tested on: pigweed (Amaranthus retroflexus); test: Test A preemergence, directed soil spray, visual injury rating; conditions: 0 is no effect, 100 is complete control
Summary of the method: as §2

[14] = tested on: ryegrass, It. (Italian ryegrass, Lolium multiflorum); test: as above; conditions: 0 is no effect, 100 is complete control
Summary of the method: as §2

kochia (Kochia scoparia) [15] = test: as above; conditions: 0 is no effect, 100 is complete control
Summary of the method: as §2

[16] = tested on: barnyardgrass (Echinochloa crus-galli); test: as above; conditions: 0 is no effect, 100 is complete control
Summary of the method: as §2

[17] = tested on: ragweed (common ragweed, Ambrosia elatior); test: as above; conditions: 0 is no effect, 100 is complete control
Summary of the method: as §2

Foxtail, Green [18] = test: as above; conditions: 0 is no effect, 100 is complete control

| SMILES | Sedge, Umbrella plant response rating (0 to 100 scale, 0 is no effect, 100 is complete control) [1] | Ducksalad plant response rating (0 to 100 scale, 0 is no effect, 100 is complete control) [2] | Rice plant response rating (0 to 100 scale, 0 is no effect, 100 is complete control) (rice (Oryza sativa)) | Barnyardgrass plant response rating (0 to 100 scale, 0 is no effect, 100 is complete control) [3] | Plant response rating (0 to 100 scale), Pigweed [4] | Pigweed plant response rating [4] | Plant response rating (0 to 100 scale), Wheat [5] | Wheat plant response rating [5] | Plant response rating (0 to 100 scale), Corn (corn (Zea mays)) | Corn plant response rating (corn (Zea mays)) | Plant response rating (0 to 100 scale), Ryegrass, It. [6] | Ryegrass, It. plant response rating [6] | Plant response rating (0 to 100 scale), Galium [7] | Galium plant response rating [7] | Plant response rating (0 to 100 scale), Kochia (kochia (Kochia scoparia) [8]) | Kochia plant response rating (kochia (Kochia scoparia) [8]) | Barnyardgrass plant response rating ([9]; 31 g ai/ha) | Barnyardgrass plant response rating ([9]; 125 g ai/ha) | Plant response rating (0 to 100 scale), Ragweed [10] | Ragweed plant response rating [10] | further results |
| --- | --- | --- | --- | --- | --- | --- | --- | --- | --- | --- | --- | --- | --- | --- | --- | --- | --- | --- | --- | --- | --- |
| Cn1nc(Cl)c(O)c(-c2cccc3c2nnn3C)c1=O [Compound 61] | 0 | 0 | 0 | 0 | 0 | 0 | 0 | 0 | 0 | 0 | 0 | 0 | 0 | 0 | 0 | 0 | 0 | 0 | 0 | 0 | Plant response rating (0 to 100 scale), Foxtail, Green (Foxtail, Green [11]): 0; Foxtail, Green plant response rating (Foxtail, Green [11]): 0; Blackgrass plant response rating ([12]; 31 g ai/ha): 0; Blackgrass plant response rating ([12]; 125 g ai/ha): 0; Plant response rating (0 to 100 scale), Pigweed ([13]; 31 g ai/ha): 0; Plant response rating (0 to 100 scale), Pigweed ([13]; 125 g ai/ha): 0; Plant response rating (0 to 100 scale), Ryegrass, It. ([14]; 31 g ai/ha): 0; Plant response rating (0 to 100 scale), Ryegrass, It. ([14]; 125 g ai/ha): 0; Plant response rating (0 to 100 scale), Kochia (kochia (Kochia scoparia) [15]; 31 g ai/ha): 0; Plant response rating (0 to 100 scale), Kochia (kochia (Kochia scoparia) [15]; 125 g ai/ha): 0; Plant response rating (0 to 100 scale), Barnyardgrass ([16]; 31 g ai/ha): 0; Plant response rating (0 to 100 scale), Barnyardgrass ([16]; 125 g ai/ha): 0; Plant response rating (0 to 100 scale), Ragweed ([17]; 31 g ai/ha): 0; Plant response rating (0 to 100 scale), Ragweed ([17]; 125 g ai/ha): 0; Plant response rating (0 to 100 scale), Foxtail, Green (Foxtail, Green [18]; 31 g ai/ha): 0; Plant response rating (0 to 100 scale), Foxtail, Green (Foxtail, Green [18]; 125 g ai/ha): 0 |
| CCC(=O)Oc1c(C)nn(C)c(=O)c1-c1c(Br)ccc2c1cnn2C [Compound 64] | 0 | 0 | 0 | 0 | 0 | 0 | 0 | 0 | 0 | 0 | 0 | 0 | 30 | 50 | 0 | 0 | 0 | 0 | 0 | 0 | Plant response rating (0 to 100 scale), Foxtail, Green (Foxtail, Green [11]): 0; Foxtail, Green plant response rating (Foxtail, Green [11]): 0; Blackgrass plant response rating ([12]; 31 g ai/ha): 60; Blackgrass plant response rating ([12]; 125 g ai/ha): 0; Plant response rating (0 to 100 scale), Pigweed ([13]; 31 g ai/ha): 0; Plant response rating (0 to 100 scale), Pigweed ([13]; 125 g ai/ha): 0; Plant response rating (0 to 100 scale), Ryegrass, It. ([14]; 31 g ai/ha): 0; Plant response rating (0 to 100 scale), Ryegrass, It. ([14]; 125 g ai/ha): 0; Plant response rating (0 to 100 scale), Kochia (kochia (Kochia scoparia) [15]; 31 g ai/ha): 0; Plant response rating (0 to 100 scale), Kochia (kochia (Kochia scoparia) [15]; 125 g ai/ha): 0; Plant response rating (0 to 100 scale), Barnyardgrass ([16]; 31 g ai/ha): 0; Plant response rating (0 to 100 scale), Barnyardgrass ([16]; 125 g ai/ha): 0; Plant response rating (0 to 100 scale), Ragweed ([17]; 31 g ai/ha): 0; Plant response rating (0 to 100 scale), Ragweed ([17]; 125 g ai/ha): 0; Plant response rating (0 to 100 scale), Foxtail, Green (Foxtail, Green [18]; 31 g ai/ha): 0; Plant response rating (0 to 100 scale), Foxtail, Green (Foxtail, Green [18]; 125 g ai/ha): 0 |
| Cc1nn(C)c(=O)c(-c2c(Br)ccc3c2cnn3C)c1O [Compound 65] | 0 | 0 | 0 | 0 | 0 | 0 | 0 | 0 | 0 | 0 | 0 | 0 | 0 | 0 | 0 | 0 | 0 | 0 | 0 | 0 | Plant response rating (0 to 100 scale), Foxtail, Green (Foxtail, Green [11]): 0; Foxtail, Green plant response rating (Foxtail, Green [11]): 0; Blackgrass plant response rating ([12]; 31 g ai/ha): 0; Blackgrass plant response rating ([12]; 125 g ai/ha): 0; Plant response rating (0 to 100 scale), Pigweed ([13]; 31 g ai/ha): 0; Plant response rating (0 to 100 scale), Pigweed ([13]; 125 g ai/ha): 0; Plant response rating (0 to 100 scale), Ryegrass, It. ([14]; 31 g ai/ha): 0; Plant response rating (0 to 100 scale), Ryegrass, It. ([14]; 125 g ai/ha): 0; Plant response rating (0 to 100 scale), Kochia (kochia (Kochia scoparia) [15]; 31 g ai/ha): 0; Plant response rating (0 to 100 scale), Kochia (kochia (Kochia scoparia) [15]; 125 g ai/ha): 0; Plant response rating (0 to 100 scale), Barnyardgrass ([16]; 31 g ai/ha): 0; Plant response rating (0 to 100 scale), Barnyardgrass ([16]; 125 g ai/ha): 0; Plant response rating (0 to 100 scale), Ragweed ([17]; 31 g ai/ha): 0; Plant response rating (0 to 100 scale), Ragweed ([17]; 125 g ai/ha): 0; Plant response rating (0 to 100 scale), Foxtail, Green (Foxtail, Green [18]; 31 g ai/ha): 0; Plant response rating (0 to 100 scale), Foxtail, Green (Foxtail, Green [18]; 125 g ai/ha): 0 |
